Reference: ChEMBL document CHEMBL2331150, “Aaptamine derivatives from the Indonesian sponge Aaptos suberitoides” (J Nat Prod, 2013)

Experiments:
L5178Y [1] = assay: Cytotoxic activity against mouse L5178Y cells assessed as growth inhibition at 10 ug/ml by MTT assay; assay type: functional; conditions: read-out: GI
L5178Y [2] = assay: Cytotoxic activity against mouse L5178Y cells by MTT assay; assay type: functional, cell-based

Row | Structure (SMILES) | inhibition of growth at 10 µg/mL (L5178Y [1]) [%] | IC50 (L5178Y [2]) [µM]
1 | COc1cc2ccnc3ccn4cnc1c4c23 | 98.7 | 13.5
2 | COC1=Cc2ccnc3c(N)cnc(c23)C1=O | 64.4 | 
3 | COc1cc2cc(C(=O)c3ccccc3)nc3c2c(c1O)NC=C3 | 93.7 | 5.5
4 | COc1cc2ccnc3ccn4c(=O)cnc1c4c23 | 0 | 
5 | COc1nc2c(OC)cc3ccnc4ccn(c1=O)c2c34 | 38.6 | 
6 | COC1=Cc2ccnc3ccnc(c23)C1(OC)OC | 51.2 | 
7 | COc1cc2ccnc3c2c(c1OC)NC=C3 [AAPTAMINE] | 100 | 8.3
